Columns and labels:
Format in all cases: cell-based
ganglionic receptors = biological target: T1, ganglionic receptors (Rattus norvegicus, UniProt P04757+P12392); assay: cell-based; conditions: for Ganglion Effect (% nicotine): ganglionic cell preparations
T1 construct: endogenous in cells; host or cells: cell preparations derived from the adrenal gland

CNS nicotinic receptors = assay: Determination of Dopamine Release
Procedure: As such, these compounds have the ability to cause relevant neurons to release or secrete acetylcholine, dopamine, and other neurotransmitters. […] Certain compounds of the present invention can provide secretion of dopamine in an amount which can exceed that elicited by an equal molar amount of (S)-(-)-nicotine.
Determination of Dolpamine Release
Dopamine release was measured using the techniques described in U.S. Pat. No. 5,597,919 to Dull et al., the subject matter of which is already incorporated herein by reference in its entirety. […] Reported EC50 is expressed in nM and Emax represent the amount released relative to nicotine.

muscle receptors = biological target: T2, muscle receptors (Homo sapiens, UniProt P02708+P07510+Q07001); conditions: muscle cell preparations
T2 construct: endogenous in cells; host or cells: cell preparations derived from muscle
T2 sequence (P07510 23-517): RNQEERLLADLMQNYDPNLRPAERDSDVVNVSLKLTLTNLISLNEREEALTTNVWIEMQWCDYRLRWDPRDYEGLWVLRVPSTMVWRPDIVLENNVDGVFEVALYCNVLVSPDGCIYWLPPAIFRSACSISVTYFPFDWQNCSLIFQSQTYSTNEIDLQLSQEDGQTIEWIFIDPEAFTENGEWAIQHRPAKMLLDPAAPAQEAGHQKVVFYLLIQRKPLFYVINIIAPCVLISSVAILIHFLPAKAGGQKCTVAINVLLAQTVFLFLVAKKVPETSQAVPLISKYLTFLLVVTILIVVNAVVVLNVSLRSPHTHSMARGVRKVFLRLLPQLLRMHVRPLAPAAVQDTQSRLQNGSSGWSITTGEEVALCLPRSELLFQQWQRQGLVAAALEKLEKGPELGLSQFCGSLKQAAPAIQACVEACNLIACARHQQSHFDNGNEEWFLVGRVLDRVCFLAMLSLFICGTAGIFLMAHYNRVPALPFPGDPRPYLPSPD
T2 sequence (P11230 24-501, further chain): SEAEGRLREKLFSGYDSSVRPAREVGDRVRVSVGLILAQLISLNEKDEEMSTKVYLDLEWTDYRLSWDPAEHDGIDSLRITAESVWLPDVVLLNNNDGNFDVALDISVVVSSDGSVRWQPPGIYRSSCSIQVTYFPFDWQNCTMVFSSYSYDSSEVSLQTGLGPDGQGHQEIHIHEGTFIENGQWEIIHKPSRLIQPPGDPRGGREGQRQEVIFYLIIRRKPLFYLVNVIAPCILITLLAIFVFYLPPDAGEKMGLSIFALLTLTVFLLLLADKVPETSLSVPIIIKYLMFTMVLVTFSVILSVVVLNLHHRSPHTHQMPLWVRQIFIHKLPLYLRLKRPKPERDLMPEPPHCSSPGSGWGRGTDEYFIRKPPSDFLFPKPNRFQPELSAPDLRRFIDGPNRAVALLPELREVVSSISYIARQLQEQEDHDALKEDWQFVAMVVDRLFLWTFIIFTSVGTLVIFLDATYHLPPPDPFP
T2 sequence (Q07001 22-517): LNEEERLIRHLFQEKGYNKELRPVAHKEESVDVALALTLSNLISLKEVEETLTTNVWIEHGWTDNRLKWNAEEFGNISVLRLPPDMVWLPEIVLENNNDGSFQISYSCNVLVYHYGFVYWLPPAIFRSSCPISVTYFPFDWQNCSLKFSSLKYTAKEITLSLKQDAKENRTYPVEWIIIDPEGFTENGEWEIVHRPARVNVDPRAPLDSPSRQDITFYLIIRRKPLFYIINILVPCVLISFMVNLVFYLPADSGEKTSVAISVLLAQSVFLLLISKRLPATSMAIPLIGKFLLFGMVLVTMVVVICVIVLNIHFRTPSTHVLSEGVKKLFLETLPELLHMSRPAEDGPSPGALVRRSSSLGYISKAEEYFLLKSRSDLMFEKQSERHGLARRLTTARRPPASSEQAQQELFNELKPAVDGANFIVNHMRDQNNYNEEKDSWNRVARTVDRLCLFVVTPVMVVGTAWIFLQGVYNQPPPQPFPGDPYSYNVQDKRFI
T2 sequence (P02708 21-457): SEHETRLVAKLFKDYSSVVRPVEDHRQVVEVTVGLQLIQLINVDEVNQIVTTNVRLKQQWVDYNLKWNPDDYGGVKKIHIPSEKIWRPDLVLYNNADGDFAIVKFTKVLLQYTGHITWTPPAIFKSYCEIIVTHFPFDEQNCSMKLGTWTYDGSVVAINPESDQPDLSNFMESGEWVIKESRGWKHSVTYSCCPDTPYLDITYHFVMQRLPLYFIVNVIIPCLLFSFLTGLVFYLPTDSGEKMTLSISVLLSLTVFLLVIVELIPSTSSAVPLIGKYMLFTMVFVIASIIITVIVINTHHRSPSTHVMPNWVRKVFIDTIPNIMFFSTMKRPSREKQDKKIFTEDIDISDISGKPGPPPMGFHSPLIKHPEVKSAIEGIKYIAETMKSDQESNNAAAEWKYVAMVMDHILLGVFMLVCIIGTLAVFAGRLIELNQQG

T1 sequence (P04757 26-499): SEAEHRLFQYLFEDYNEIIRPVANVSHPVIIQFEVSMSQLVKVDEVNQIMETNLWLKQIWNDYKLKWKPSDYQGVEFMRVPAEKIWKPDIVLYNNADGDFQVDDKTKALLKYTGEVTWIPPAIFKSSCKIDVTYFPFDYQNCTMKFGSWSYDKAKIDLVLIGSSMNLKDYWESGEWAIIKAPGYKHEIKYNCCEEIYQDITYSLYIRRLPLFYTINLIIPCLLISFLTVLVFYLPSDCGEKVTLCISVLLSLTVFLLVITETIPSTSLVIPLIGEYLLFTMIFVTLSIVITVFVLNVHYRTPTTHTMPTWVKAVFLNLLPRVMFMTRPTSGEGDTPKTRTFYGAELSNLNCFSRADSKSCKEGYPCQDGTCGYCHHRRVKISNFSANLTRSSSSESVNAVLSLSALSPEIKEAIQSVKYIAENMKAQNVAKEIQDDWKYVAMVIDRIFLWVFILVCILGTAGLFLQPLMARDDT
T1 sequence (P12392 21-495): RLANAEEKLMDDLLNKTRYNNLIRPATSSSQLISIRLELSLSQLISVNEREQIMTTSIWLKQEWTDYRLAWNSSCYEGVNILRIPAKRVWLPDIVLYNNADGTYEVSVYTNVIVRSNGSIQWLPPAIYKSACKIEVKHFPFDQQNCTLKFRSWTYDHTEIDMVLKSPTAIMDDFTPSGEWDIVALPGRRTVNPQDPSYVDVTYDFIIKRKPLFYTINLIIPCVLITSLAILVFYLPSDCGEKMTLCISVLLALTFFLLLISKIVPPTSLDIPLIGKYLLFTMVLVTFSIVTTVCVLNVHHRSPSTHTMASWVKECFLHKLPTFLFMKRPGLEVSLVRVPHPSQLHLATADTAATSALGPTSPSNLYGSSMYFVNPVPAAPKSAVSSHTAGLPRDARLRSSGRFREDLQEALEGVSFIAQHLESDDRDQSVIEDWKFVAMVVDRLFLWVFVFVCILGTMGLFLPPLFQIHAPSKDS

CNCC/C=C/c1cncc(-c2ccccc2)c1 [Sample No. 8, (E)-N-Methyl-4-[3-(5-phenylpyridin)yl]-3-buten-1-amine]
Ganglion Effect (% nicotine) (ganglionic receptors): 0

NCC/C=C/c1cccnc1.O=C(O)/C=C/C(=O)O.O=C(O)/C=C/C(=O)O [Sample No. 6, (E)-4-(3-pyridinyl)-3-buten-1-amine difumarate]
Ganglion Effect (% nicotine) (ganglionic receptors): 23

NCC/C=C/c1cncc(Br)c1 [Sample No. 2, (E)-4-[3-(5-Bromopyridin)yl]-3-buten-1-amine Hemifumarate]
Ganglion Effect (% nicotine) (ganglionic receptors): 11 | EC50 (CNS nicotinic receptors): 2400 nM | Dopamine Release Emax (CNS nicotinic receptors; percentage of release obtained with a concentration of (S)-(-)-nicotine resulting in maximal effects): 107% | Muscle Effect (% nicotine) (muscle receptors): 8

CNCC/C=C/c1cncc(N)c1 [Sample No. 9, (E)-N-methyl-4-[3-(5-aminopyridin)yl]-3-buten-1-amine]
Ganglion Effect (% nicotine) (ganglionic receptors): 4

CNCC/C=C/c1cncc(OC(C)C)c1 [Sample No. 4, (E)-N-Methyl-4-[3-(5-isopropoxypyridin)yl]-3-buten-1-amine]
Ganglion Effect (% nicotine) (ganglionic receptors): < 15

CCOc1cncc(/C=C/CCNC)c1 [Sample No. 7, (E)-N-Methyl-4-[3-(5-ethoxypyridin)yl]-3-buten-1-amine Sesquifumarate]
Emax (ganglionic receptors; read-out: Ganglion Effect (% nicotine)): < 15%

CNCC/C=C/c1cncc(OCc2ccccc2)c1 [Sample No. 1, (E)-N-Methyl-4-[3-(5-benzyloxypyridin)yl]-3-buten-1-amine]
Ganglion Effect (% nicotine) (ganglionic receptors): 0

CNCC/C=C/c1cncc(Oc2ccccc2)c1 [Sample No. 3, (E)-N-Methyl-4-[3-(5-phenoxypyridin)yl]-3-buten-1-amine]
Ganglion Effect (% nicotine) (ganglionic receptors): < 15

CNCC/C=C/c1cncc(COC)c1 [Sample No. 5, (E)-N-Methyl-4-[3-(5-methoxymethylpyridin)yl]-3-buten-1-amine]
Ganglion Effect (% nicotine) (ganglionic receptors): 0

Reference: patent US6274606A, “Methods of treating central nervous system disorders with aryl substituted olefinic amine compounds” (Targacept, Inc., priority 1998, dated 2001)
